ChEMBL document CHEMBL2434830, “Inhibitory constituents from the aerial parts of Polygala tenuifolia on LPS-induced NO production in BV2 microglia cells” (Bioorg Med Chem Lett, 2013)

Experiments:
BV-2 [1] = assay: Cytotoxicity against mouse BV2 cells assessed as cell viability at 50 uM by MTT assay; format: cell-based; conditions: bv-2, 50 µM
BV-2 [2] = assay: Antiinflammatory activity in mouse BV2 cells assessed as inhibition of LPS-induced NO production after 24 hrs by Griess assay; format: functional, cell-based; conditions: BV-2, 24 h

| Structure (SMILES) | Activity (BV-2 [1]) | IC50 (BV-2 [2]) [µM] |
| --- | --- | --- |
| COc1c(O)cc2oc3ccc(O)cc3c(=O)c2c1O | Toxic | – |
| COc1cc2oc3cc(O)c(O)cc3c(=O)c2c(O)c1OC | Toxic | – |
| O=c1c2cc(O)ccc2oc2cc3c(c(O)c12)OCO3 | – | 20.6 |
| O=c1c2cc(O)ccc2oc2c(O[C@@H]3O[C@H](CO)[C@@H](O)[C@H](O)[C@H]3O)ccc(O)c12 | – | 38.4 |
| O=c1c2ccc(O)cc2oc2cccc(O)c12 | Toxic | – |
| COc1ccc(O)c2c(=O)c3cc(O)ccc3oc12 | – | 7.4 |
| COc1cc2c(=O)c3c(O)cc(O)cc3oc2cc1O [ALLOATHYRIOL] | – | > 100 |
| COc1ccc2c(c1)c(CC(=O)O)c(C)n2C(=O)c1ccc(Cl)cc1 [INDOMETHACIN] | – | 7.1 |
| O=c1c2cc(O)c(O)cc2oc2cc(O)c([C@@H]3O[C@H](CO)[C@@H](O)[C@H](O)[C@H]3O)c(O)c12 [MANGIFERIN] | – | 38.5 |
